Here are results for 5 compounds from US9115159B2, “Phosphate compounds, a process for their preparation and pharmaceutical compositions containing them” (LES LABORATOIRES SERVIER, priority 2013, dated 2015).

Data set [1] is described as follows: In vitro test on human Caco-2 cells, cellular transport A to B. It counts as in vitro ADME. Particulars: human, Caco-2, drug incubated and measured, A to B, 1 or 3 μM, read-out: Papp, the drug after incubation of the drug. The method, then:
(§1) The cellular transport from A to B (Apical to Basolateral) of the phosphate compounds of formula (I) and the compounds of formula (I′) (corresponding drugs) is studied in human Caco-2 cells. Each compound is deposited apically at 1 or 3 μM (in duplicate) and then incubated for 120 minutes.
(§2) Several samples are taken during the experiment; • apically: immediately after deposition (t=0) and at 120 minutes • basolaterally: at the end of the experiment (120 minutes)
(§3) The concentrations of the phosphate compound (prodrug) and/or of its hydroxylated homologue (drug) are determined by liquid chromatography coupled with mass spectrometric detection (LC-MS/MS). The limit of quantification for both entities is 2 ng/mL.
(§4) The apparent permeability (Papp) and the predicted absorbed fraction (Fabs) in humans are calculated for the prodrug, for the drug after incubation of the prodrug and for the drug after incubation of the drug (Hubatsch et al, Nat Protoc. 2007; 2(9), 2111-2119).
(§5) The experiment yield, which corresponds to the ratio (in percent) of the total amount of compound found at the end of the experiment versus that incubated, is also calculated.
Background: Caco-2 cells form a polarised layer with tight junctions and transporters.

The subject of the next data set is human Caco-2 cells. The description is as above. It counts as in vitro ADME. Particulars: drug incubated and measured, 120 minutes; for Fabs (predicted absorbed fraction in humans), the drug after incubation of the drug: A to B, 1 or 3 μM. The method, then: as §1, §2, §3, §4, §5
Data set [2] can be described thus: Pharmacokinetic profile / in vivo conversion after oral administration to SCID mice (plasma, LC-MS/MS). More on the design: species or system female SCID mice. The conditions noted are these: female, mouse, po, lipid formulation (PEG 300/ethanol/Phosal 50PG 30/10/60). How it is done: The pharmacokinetic profile of the phosphate compounds of formula (I) is evaluated in a lipid formulation and in aqueous solution in female SCID mice. This is compared to the pharmacokinetic profile of compounds of formula (I′) in a lipid formulation. More specifically, 4-[{[3-(6-{[(3S)-3-(morpholin-4-ylmethyl)-3,4-dihydroisoquinolin-2(1H)-yl]-carbonyl}-1,3-benzodioxol-5-yl)-5,6,7,8-tetrahydroindolizin-1-yl]carbonyl}(phenyl)-amino]phenyl disodium phosphate (also referred to as the compound of Example 1) was tested and compared to N-(4-hydroxyphenyl)-3-{6-[((3S)-3-(4-morpholinylmethyl)-3,4-dihydro-2(1H)-isoquinolinyl)carbonyl]-1,3-benzodioxol-5-yl}-N-phenyl-5,6,7,8-tetrahydro-1-indolizine carboxamide (also referred to as the drug from Example 1).
The compound of Example 1 is prepared in a mixture of anhydrous ethanol/polyethylene glycol 300/water (10/40/50, v/v/v) intended for administration by the p.o. route. The study is carried out in 2 groups of SCID mice to which the compound of Example 1 is administered under the following conditions: • Group 1: 3 mg/kg p.o. (gavage, 10 mL/kg), • Group 2: 25 mg/kg p.o. (gavage, 10 mL/kg).
Blood samples are taken at the following points in time (3 samples per animal and 3 animals for each point in time): 0.25 hr, 0.5 hr, 1 hr, 2 hrs, 6 hrs and 24 hrs after oral administration.
The compound of Example 1 is also administered by the oral route in an aqueous medium to SCID mice, under the following conditions: • Group 1: 30 mg/kg p.o. dissolved in 1 mM sodium carbonate solution (gavage, 10 mL/kg), • Group 2: 100 mg/kg p.o. in water (gavage, 10 mL/kg).
Blood samples are taken at the following points in time (3 animals for each point in time and 1 sample per animal): 0.25 hr, 0.5 hr, 1 hr, 2 hrs, 4 hrs, 6 hrs and 24 hrs after oral administration.
For all formulations of the compound of Example 1, the blood thereby collected is centrifuged and the plasma is transferred to tubes containing 1M hydrochloric acid. The plasma concentrations of the phosphate compound (prodrug) and its hydroxylated homologue (drug) are determined simultaneously using a method of liquid chromatography coupled with mass spectrometric detection (TFC-LC-MS/MS). The limit of detection for both entities is 0.5 ng/mL.
The drug from Example 1 is prepared in a mixture of anhydrous ethanol/polyethylene glycol 300/water (10/40/50, v/v/v) intended for administration by the p.o. route. The study is carried out in several groups of SCID mice to which the drug from Example 1 is administered under the following conditions: • Group 1: 3 mg/kg p.o. (gavage, 10 mL/kg), • Group 2: 30 mg/kg p.o. (gavage, 10 mL/kg), • Group 3: 25 mg/kg p.o. (gavage, 10 mL/kg), • Group 4: 100 mg/kg p.o. (gavage, 10 mL/kg).
Blood samples are taken at the following points in time (3 animals for each point in time and 3 samples per animal for Groups 1-2 and 1 sample per animal for Groups 3 and 4): • p.o.: before administration and then 0.25 hr, 0.5 hr, 0.75 hr, 1 hr, 2 hrs, 4 hrs, 6 hrs, 8 hrs, 16 hrs and 24 hrs after oral administration at 3 and 30 mg/kg, • p.o.: 0.5 hr, 2 hrs, 6 hrs, 16 hrs and 24 hrs after oral administration at 25 mg/kg and 0.5 hr, 1 hr, 2 hrs, 6 hrs, 16 hrs, 30 hrs and 48 hrs after oral administration at 100 mg/kg.
The plasma from the blood samples collected after administration of the lipid formulations of the drug from the compound of Example 1 are analysed by liquid chromatography coupled with mass spectrometric detection. The limit of quantification of the drug from the compound of Example 1 is less than or equal to 0.5 ng/mL.
Non-compartmental pharmacokinetic analysis is carried out on the mean values of the plasma concentrations of the compounds tested. […]

Data set [3] is described as follows: Solubility in aqueous medium buffered to physiological pH (phosphate 0.33M, pH 7.4). It counts as physicochemical. Particulars: phosphate 0.33M, pH = 7.4. How it is done:
The solubilities of the compounds were also measured in a medium buffered to physiological pH (cf. Table 3).

Where two headings read alike, the source gives them in different places.

As to `C[C@@H]1Cc2ccccc2CN1C(=O)c1cc2c(cc1-c1cc(C(=O)N(c3ccc(O)cc3)c3cnc4c(ccn4C)c3)c3ccccn13)OCO2` [Drug from Example 4, N-(4-Hydroxyphenyl)-3-(6-{[(3R)-3-methyl-3,4-dihydroisoquinolin-2(1H)-yl]carbonyl}-1,3-benzodioxol-5-yl)-N-(1-methyl-1H-pyrrolo[2,3-b]pyridin-5-yl)-indolizine-1-carboxamide], the Papp A→B at 120 min in data set [1] was 0.21 ×10⁻⁶ cm/s. Also, in the data set on human Caco-2 cells, the “Yield (experiment yield), the drug after incubation of the drug” value (from here on “Yield (experiment yield), the drug”) is reported as “Yield (%) = 20” and the “Fabs (predicted absorbed fraction in humans), the drug after incubation of the drug” value is “Fabs (%) = 46”.

As to `C[C@@H]1Cc2ccccc2CN1C(=O)c1cc2c(cc1-c1cc(C(=O)N(c3ccncc3)c3ccc(O)cc3)c3ccccn13)OCO2` [Drug from Example 5, N-(4-Hydroxyphenyl)-3-(6-{[(3R)-3-methyl-3,4-dihydroisoquinolin-2(1H)-yl]-carbonyl}-1,3-benzodioxol-5-yl)-N-(pyridin-4-yl)indolizine-1-carboxamide], in data set [1], the Papp A→B at 120 min was found to be 0.7 ×10⁻⁶ cm/s. Besides, in the data set on human Caco-2 cells, the “Yield (experiment yield), the drug” value is “Yield (%) = 34” and the “Fabs (predicted absorbed fraction in humans), the drug after incubation of the drug” value is given as “Fabs (%) = 68”.

Turning to `Cc1c(N(C(=O)c2cc(-c3cc(Cl)ccc3C(=O)N3Cc4ccccc4C[C@H]3CN3CCOCC3)n(C)c2C)c2ccc(O)cc2)cc(C#N)n1C` [Drug from Example 20, 5-(5-Chloro-2-{[(3S)-3-(morpholin-4-ylmethyl)-3,4-dihydroisoquinolin-2(1H)-yl]carbonyl}phenyl)-N-(5-cyano-1,2-dimethyl-1H-pyrrol-3-yl)-N-(4-hydroxyphenyl)-1,2-dimethyl-1H-pyrrole-3-carboxamide], in data set [2] (Drug from Example 20 administered 3 mg/kg p.o., read-out: AUCt, compound measured: Drug from Example 20), the AUC(0-t) was found to be 55 ng·h/mL. The Cmax in data set [2] (Drug from Example 20 administered 3 mg/kg p.o., read-out: Cmax, compound measured: Drug from Example 20) is 39 ng/mL. In data set [2] (Drug from Example 20 administered 3 mg/kg p.o., read-out: Tmax, compound measured: Drug from Example 20), the time of peak concentration (Tmax) was found to be 1 h. In addition, the AUC(0-t) in data set [2] (Drug from Example 20 administered 25 mg/kg p.o., read-out: AUCt, compound measured: Drug from Example 20) stood at 10200 ng·h/mL. Further, the Cmax in data set [2] (Drug from Example 20 administered 25 mg/kg p.o., read-out: Cmax, compound measured: Drug from Example 20) was 5520 ng/mL. Further, the Tmax in data set [2] (Drug from Example 20 administered 25 mg/kg p.o., read-out: Tmax, compound measured: Drug from Example 20) stood at 2 h. In addition, in data set [3], the “Solubility at 10 μM” value is given as “Soluble”, the “Solubility at 20 μM” value was “Insoluble”, the “Solubility at 50 μM” value is recorded as “Insoluble” and the “Solubility at 100 μM” value is recorded as “Insoluble”. In addition, the Papp A→B at 120 min in data set [1] amounted to 0.29 ×10⁻⁶ cm/s. Further, in the data set on human Caco-2 cells, the “Yield (experiment yield), the drug” value is listed as “Yield (%) = 91” and the “Fabs (predicted absorbed fraction in humans), the drug after incubation of the drug” value is “Fabs (%) = 25”.

As for `Cc1c(C(=O)N(c2ccc(O)cc2)c2cc(C#N)n(C)c2)cc(-c2cc(Cl)ccc2C(=O)N2Cc3ccccc3C[C@H]2CN2CCOCC2)n1C` [Drug from Example 21, 5-(5-Chloro-2-{[(3S)-3-(morpholin-4-ylmethyl)-3,4-dihydroisoquinolin-2(1H)-yl]carbonyl}phenyl)-N-(5-cyano-1-methyl-1H-pyrrol-3-yl)-N-(4-hydroxyphenyl)-1,2-dimethyl-1H-pyrrole-3-carboxamide], the Papp A→B at 120 min in data set [1] stood at 0.27 ×10⁻⁶ cm/s. Moreover, in the data set with human Caco-2 cells, the “Yield (experiment yield), the drug” value was “Yield (%) = 82” and the “Fabs (predicted absorbed fraction in humans), the drug after incubation of the drug” value was “Fabs (%) = 24”.

With `Cc1c(N(C(=O)c2cc(-c3cc(F)ccc3C(=O)N3Cc4ccccc4C[C@H]3CN3CCOCC3)n(C)c2C)c2ccc(O)cc2)cc(C#N)n1C` [Drug from Example 25, N-(5-Cyano-1,2-dimethyl-1H-pyrrol-3-yl)-5-(5-fluoro-2-{[(3S)-3-(morpholin-4-ylmethyl)-3,4-dihydroisoquinolin-2(1H)-yl]carbonyl}phenyl)-N-(4-hydroxyphenyl)-1,2-dimethyl-1H-pyrrole-3-carboxamide], the AUC(0-t) in data set [2] (Drug from Example 25 administered 3 mg/kg p.o., read-out: AUCt, compound measured: Drug from Example 25) amounted to 37 ng·h/mL. In addition, the Cmax in data set [2] (Drug from Example 25 administered 3 mg/kg p.o., read-out: Cmax, compound measured: Drug from Example 25) turned out to be 33 ng/mL. Also, the time of peak concentration (Tmax) in data set [2] (Drug from Example 25 administered 3 mg/kg p.o., read-out: Tmax, compound measured: Drug from Example 25) was determined as 1 h. For the same compound, the AUC(0-t) in data set [2] (Drug from Example 25 administered 25 mg/kg p.o., read-out: AUCt, compound measured: Drug from Example 25) was 5700 ng·h/mL. The Cmax in data set [2] (Drug from Example 25 administered 25 mg/kg p.o., read-out: Cmax, compound measured: Drug from Example 25) is 3000 ng/mL. For the same compound, in data set [2] (Drug from Example 25 administered 25 mg/kg p.o., read-out: Tmax, compound measured: Drug from Example 25), the Tmax was 1 h. In addition, in data set [3], the “Solubility at 10 μM” value was “Soluble”, the “Solubility at 20 μM” value is “Soluble”, the “Solubility at 50 μM” value is reported as “Insoluble” and the “Solubility at 100 μM” value is given as “Insoluble”. Further, in data set [1], the Papp A→B at 120 min stood at 0.49 ×10⁻⁶ cm/s. Besides, in the data set with human Caco-2 cells, the “Yield (experiment yield), the drug” value is “Yield (%) = 100” and the “Fabs (predicted absorbed fraction in humans), the drug after incubation of the drug” value is recorded as “Fabs (%) = 40”.

What is called Cmax is the maximum level reached in the sampled fluid or tissue. The term Tmax denotes the time from dosing to the highest level.
